Values after ≈ are worked out from the molar mass of the structure shown.
Experiments:
Treponema hyodysenteriae = assay: In vitro test against Treponema hyodysenteriae (MIC, MBC); format: cell-based; settings: Brachyspira hyodysenteriae, lowest concentration in a dilution series where growth is inhibited, read-out: minimum inhibitory concentration
Method: D was tested in vitro against Treponema hyodysenteriae by a known method. The minimum inhibitory concentration (the lowest concentration of compound in a dilution series where growth is inhibited) was 0.1 mcg/ml. The minimum bactericidal concentration (the lowest concentration of compound in which no viable treponemes are observed upon dilution and subculture from the broth onto blood agar plates) was greater than 0.1 mcg/ml but less than 1 mcg/ml.

[1] = Acute toxicity in female mice; format: in vivo
Method: (§1) The compound was tested for acute toxicity by several modes of administration in four species, namely mice, rat, guinea pig, and rabbit. […] The results are given below in Tables 3, 4, 5 and 6.

[2] = Acute toxicity in the rat; format: in vivo; settings: for Dead/Treated within 21 days / Body weight (m ± SEM) in g. start / Body weight (m ± SEM) in g. Termination: First Experiment; for Body weight (m ± SEM) in g. Termination: Student's t test: t 0.05
Method: as §1

[3] = Acute toxicity in the guinea pig by esophageal administration; format: in vivo
Method: as §1

[4] = Acute toxicity in the rabbit by esophageal administration; format: in vivo
Method: as §1

[5] = Subacute toxicity in the mouse; format: in vivo; settings: for SGOT / SGPT: 24 hrs. after last dose
Method: In view of the favourable acute toxicity data, the compound was administered orally in sub-acute, but relatively large, doses to mice and rats for 15 days. Data were collected on the effects on death rate, weight, liver, and kidneys.

[6] = Subacute toxicity in female rats; format: in vivo, rat; settings: 2 g/kg/day by gastric lavage for 21 days
[7] = Chronic toxicity in the female mouse; format: in vivo; settings: for Dead/Treated / Body Weight in g (m ± SE) Start / Body Weight in g (m ± SE) Termination: gastric lavage, 18 weeks; for Fresh Organ-to-Body-Weight Ratio, Heart / Fresh Organ-to-Body-Weight Ratio, Kidneys / Fresh Organ-to-Body-Weight Ratio, Liver / Fresh Organ-to-Body-Weight Ratio, Lungs: m ± SE, 4 animals; for Blood Glucose / SGOT / SGPT: mean of 6 animals, 24 hours after last dose
From the text: In view of the favourable sub-acute toxicity, the chronic toxicity in female mice was studied.

[8] = Teratogenetic study, mouse; format: in vivo; settings: 250 mg/kg/day oral, 3rd to 13th days
Method: (§2) In view of the favourable results on chronic toxicity, a teratogenic study was conducted with male and female mice and rats.
a. Animal Species: Mouse, Male and female mice housed together for 10
Oral treatment from 3rd day to 13th days.

Teratogenetic study, rat = format: in vivo; settings: 250 mg/kg/day oral, same conditions as mouse
Method: as §2
b. Animal Species. Rat. Same experimental conditions as with the mouse.

[9] = Acute toxicity by several modes of administration in four species; format: in vivo, and rabbit; settings: mice, rat, guinea pig, rabbit
Method: as §1

[10] = Teratogenic study with male and female mice and rats; format: in vivo
Method: as §2

General safety statement = settings: statement in the description
[11] = test system: five strains of Vibrio cholerae; assay: In vitro effect on five strains of Vibrio cholerae (summary)
[12] = Second Experiment, F, esophageal, 4000 mg/kg
[13] = Second Experiment, F, intraperitoneal, 500 mg/kg
[14] = Second Experiment, M, esophageal, 4000 mg/kg
[15] = Second Experiment, M, intraperitoneal, 500 mg/kg
[16] = 500 mg/kg/day by gastric lavage for 15 days
[17] = in adraganth gum, 1 g/kg/day for 15 days

## CCC(C)c1cnc(CC(C)C)c(=O)n1O [D, D-aspergillic acid]
Treponema hyodysenteriae
  MIC: 0.1 µg/mL (≈ 0.446 µM)
[1]; endoperitoneal, 250 mg/kg
  Dead/Treated Animals after 7 days: 0/18
[1]; endoperitoneal, 500 mg/kg
  Dead/Treated Animals after 7 days: 6/12
[1]; endoperitoneal, 1000 mg/kg, 2 days
  Dead/Treated Animals after 2 days: 6/6
[1]; endoperitoneal, 1000 mg/kg
  Dead/Treated Animals after 7 days: 6/6
[1]; endoperitoneal, 2000 mg/kg, 1 day
  Dead/Treated Animals after 1 day: 6/6
[1]; endoperitoneal, 2000 mg/kg
  Dead/Treated Animals after 7 days: 6/6
[1]; esophageal, 1000 mg/kg
  Dead/Treated Animals after 7 days: 0/12
[1]; esophageal, 2000 mg/kg
  Dead/Treated Animals after 7 days: 0/12
[1]; esophageal, 4000 mg/kg, 4 days
  Dead/Treated Animals after 4 days: 1/12
[1]; esophageal, 4000 mg/kg
  Dead/Treated Animals after 7 days: 1/12
[2]; Cumulative data regardless of sex, esophageal, 4000 mg/kg
  Dead/Treated within 7 days: 0/16
[2]; Cumulative data regardless of sex, intraperitoneal, 500 mg/kg
  Dead/Treated within 7 days: 4/16
[2]; F, endoperitoneal, 500 mg/kg
  Dead/Treated within 21 days: 2/4
  Body weight (m ± SEM) in g. start: 206.2 ± 8.7 g
[2]; F, esophageal, 4000 mg/kg
  Dead/Treated within 21 days: 0/4
  Body weight (m ± SEM) in g. start: 201.2 ± 4.2 g
  Body weight (m ± SEM) in g. Termination: 238.2 ± 12.1 g
[2]; M, endoperitoneal, 500 mg/kg
  Dead/Treated within 21 days: 1/4
  Body weight (m ± SEM) in g. start: 234.0 ± 6.2 g
  Body weight (m ± SEM) in g. Termination: 314.3 ± 10.3 g
[2]; M, esophageal, 4000 mg/kg
  Dead/Treated within 21 days: 0/4
  Body weight (m ± SEM) in g. start: 234.5 ± 13.8 g
  Body weight (m ± SEM) in g. Termination: 288.7 ± 13.8 g
[2]; [12]
  Dead/Treated within 7 days: 0/4
  Body weight (±SE) in g. start: 252.0 ± 16.6 g
  Body weight (±SE) in g. Termination: 253.5 ± 12.1 g
[2]; [13]
  Dead/Treated within 7 days: 0/4
  Body weight (±SE) in g. start: 232.5 ± 5.9 g
  Body weight (±SE) in g. Termination: 218.2 ± 7.0 g
[2]; [14]
  Dead/Treated within 7 days: 0/4
  Body weight (±SE) in g. start: 222.5 ± 6.2 g
  Body weight (±SE) in g. Termination: 231.7 ± 15.7 g
[2]; [15]
  Dead/Treated within 7 days: 2/4
  Body weight (±SE) in g. start: 226.2 ± 6.8 g
[3]; 500 mg/kg
  Dead/Treated within 21 days: 0/4
[3]; 1000 mg/kg
  Dead/Treated within 21 days: 1/4
[3]; 2000 mg/kg
  Dead/Treated within 21 days: 5/6
[3]; 4000 mg/kg
  Dead/Treated within 21 days: 6/6
[4]; 500 mg/kg
  Dead/Treated within 7 days: 0/2
[4]; 500 mg/kg, start
  Body Weight in g. start: 2000 to 2100 g
[4]; 1000 mg/kg
  Dead/Treated within 7 days: 0/4
[4]; 1000 mg/kg, start
  Body Weight (m ± SE) in g. start: 2037 ± 104.3 g
[4]; 1000 mg/kg, termination
  Body Weight (m ± SE) in g. Termination: 1922.5 ± 71.5 g
[4]; 2000 mg/kg
  Dead/Treated within 7 days: 0/2
[4]; 2000 mg/kg, within 4 days
  dead out of treated animals, within 4 days (footnote): two dead out of seven treated animals
[5]; [16]
  % Body Weight Change: -8.1 ± 3.9%
  Dead/Treated: 0/10
  Fresh Organ-to-Body Weight Ratio, Kidneys: 1.5 ± 0.1
  Fresh Organ-to-Body Weight Ratio, Liver: 5.9 ± 0.3
[5]; in H2O, 1 g/kg/day for 15 days
  % Body Weight Change: 18.5 ± 0.75%
  Dead/Treated: 2/12
[5]; [17]
  % Body Weight Change: 16.27 ± 1.31%
  Dead/Treated: 3/12
[5]; in adraganth gum
  SGOT: 132 Units/ml
  SGPT: 10 Units/ml
[5]; in water
  SGOT: 124 Units/ml
  SGPT: 9 Units/ml
[6]; 5 animals, NS
  Average Percent Weight of Fresh Organs, Kidneys: 1.04 ± 0.03%
  Average Percent Weight of Fresh Organs, Liver: 4.54 ± 0.10%
  Average Percent Weight of Fresh Organs, Lung: 1.07 ± 0.09%
[6]; start
  Body Weight in g (m ± SE) Start: 204.1 ± 2.0 g
[6]; termination
  Body Weight in g (m ± SE) Termination: 210.6 ± 9.6 g
[6]; D, death caused by a mistake in esophagus incannulation
  Dead/Treated: 1/6
[7]; 250 mg/kg/day
  Urine Amount excreted by 6 animals in 6 hours: 6.5 mL
  Dead/Treated: 0/10
  Body Weight in g (m ± SE) Start: 27.3 ± 0.5 g
  Body Weight in g (m ± SE) Termination: 26.7 ± 0.7 g
  Fresh Organ-to-Body-Weight Ratio, Heart: 0.60 ± 0.08
  Fresh Organ-to-Body-Weight Ratio, Kidneys: 0.87 ± 0.08
  Fresh Organ-to-Body-Weight Ratio, Liver: 4.57 ± 0.25
  Fresh Organ-to-Body-Weight Ratio, Lungs: 0.731 ± 0.035
  Blood Glucose: 1.10
  SGOT: 118 Units/ml
  SGPT: 5 Units/ml
[7]; 500 mg/kg/day
  Urine Amount excreted by 6 animals in 6 hours: 7 mL
  Dead/Treated: 2/10
  Body Weight in g (m ± SE) Start: 30.4 ± 0.9 g
  Body Weight in g (m ± SE) Termination: 30.0 ± 0.7 g
  Fresh Organ-to-Body-Weight Ratio, Heart: 0.47 ± 0.02
  Fresh Organ-to-Body-Weight Ratio, Kidneys: 1.07 ± 0.04
  Fresh Organ-to-Body-Weight Ratio, Liver: 4.66 ± 0.91
  Fresh Organ-to-Body-Weight Ratio, Lungs: 1.011 ± 0.110
  Blood Glucose: 1.06
  SGOT: 159 Units/ml
  SGPT: 6 Units/ml
[8]
  Body Weight of Foetuses in g (m ± SE): 1.42 ± 0.05 g
  No. of Foetuses with malformations: 0
  No. of living Foetuses per Delivery (m ± SE): 10.3 ± 0.6
  Pregnant/Treated Animals: 3/10
Teratogenetic study, rat
  Body Weight of Foetuses in g (m ± SE): 7.08 ± 0.19 g
  No. of Foetuses with malformations: 0
  No. of living Foetuses per Delivery (m ± SE): 10.8 ± 0.86
  Pregnant/Treated Animals: 7/10
[9]
  acute toxicity: low order of toxicity
[10]
  number of young delivered live at birth: comparable with controls
[10]; either group
  malformations: No malformations
General safety statement
  nitrogenic (so in the source): not nitrogenic
[11]; 10 mcg/ml, after 48 hours
  growth of 3 of the organisms: no growth
[11]; 100 mcg/ml
  growth of the remaining two organisms: only marginal growth

Reference: patent US4292318A, “Product and method for combating swine dysentery” (priority 1979, dated 1981)
